Values quoted from earlier work as cited in US20150209310A1, “NACA FOR THE TREATMENT OF CHRONIC OR LOW IMPACT BRAIN TRAUMA” (Brighton Biotech, Inc., priority 2014, published 2015).

Details: background statement

CC(=O)N[C@@H](CS)C(=O)O [NAC, N-acetyl-L-cysteine]
crossing of the blood-brain barrier: inability to cross the blood-brain barrier
